Results taken from ChEMBL document CHEMBL5370561, “Characterization of a Malabaricane-Type Triterpene Synthase from Astragalus membranaceus and Enzymatic Synthesis of Astramalabaricosides” (J Nat Prod, 2023).

Assays:
[1] = test system: PANC-1; assay: Cytotoxicity against human PANC-1 cells assessed as reduction in cell growth measured after 72 hrs by MTT assay; assay type: functional, cell-based; details: PANC-1, 72 h
[2] = test system: HepG2; assay: Cytotoxicity against human HepG2 cells assessed as reduction in cell growth measured after 72 hrs by MTT assay; assay type: functional, cell-based; details: HepG2, 72 h
[3] = test system: PC-9; assay: Cytotoxicity against human PC-9 cells assessed as reduction in cell growth measured after 72 hrs by MTT assay; assay type: functional, cell-based; details: PC-9, 72 h
[4] = test system: BGC-823; assay: Cytotoxicity against human BGC-823 cells assessed as reduction in cell growth measured after 72 hrs by MTT assay; assay type: functional, cell-based; details: BGC-823, 72 h
[5] = test system: HCT-116; assay: Cytotoxicity against human HCT-116 cells assessed as reduction in cell growth measured after 72 hrs by MTT assay; assay type: functional, cell-based; details: HCT-116, 72 h
[6] = test system: HepG2; assay: Hepatoprotective activity against APAP-induced cell injury in human HepG2 cells assessed as cell survival rate at 10 uM incubated for 24 hrs by MTT assay relative to control; assay type: functional
[7] = test system: RAW264.7; assay: Antiinflammatory activity in LPS-induced mouse RAW264.7 cells assessed as inhibition of TNF-alpha production at 10 uM incubated for 1 hr followed by LPS-stimulation and measured after 24 hrs by ELISA analysis relative to control; assay type: functional; details: time 25 hrs
[8] = test system: Influenza A virus; assay: Antiviral activity against Influenza A virus infected in HEK293T-GlUC cells assessed as inhibition of viral replication at 10 uM preincubated with cells for 2 hrs followed by viral infection and measured after 24 hrs relative to control; assay type: functional; details: HEK-293T, time 26 hrs

| Compound | IC50 [1] [µM] | IC50 [2] [µM] | IC50 [3] [µM] | IC50 [4] [µM] | IC50 [5] [µM] | Activity [6] [%] | inhibition at 10 µM [7] [%] | inhibition at 10 µM [8] [%] |
| --- | --- | --- | --- | --- | --- | --- | --- | --- |
| CC(=O)O[C@H]1C(=O)[C@@]2(C)[C@H]([C@H](OC(=O)c3ccccc3)[C@]3(O)C[C@H](OC(=O)[C@H](O)[C@@H](NC(=O)c4ccccc4)c4ccccc4)C(C)=C1C3(C)C)[C@]1(OC(C)=O)CO[C@@H]1C[C@@H]2O [PACLITAXEL] | 0.004 | 0.064 | – | – | – | – | – | – |
| CC(C)=CCC/C(C)=C/CC[C@@](C)(O)[C@@H]1CC[C@H]2[C@@]1(C)CC[C@H]1C(C)(C)[C@@H](O[C@@H]3O[C@H](CO)[C@@H](O)[C@H](O)[C@H]3O)CC[C@]21C | 22 | > 50 | 49 | > 50 | 28 | 55 | 39 | 47 |
| N[C@@H](CCC(=O)N[C@@H](CS)C(=O)NCC(=O)O)C(=O)O [GLUTATHIONE] | – | – | – | – | – | 60 | – | – |
| C=C(C)[C@@H]1CC[C@]2(C)CC[C@]3(C)[C@H](CC[C@@H]4[C@@]5(C)CC[C@H](O)C(C)(C)[C@@H]5CC[C@]43C)[C@@H]12 [LUPEOL] | > 50 | > 50 | > 50 | > 50 | > 50 | – | 34 | 17 |
| CC(C)=CC/C=C(/C)[C@H]1CC[C@]2(C)[C@@H]1CC[C@@H]1[C@@]3(C)CC[C@H](O)C(C)(C)[C@@H]3CC[C@]12C | > 50 | > 50 | > 50 | > 50 | > 50 | 52 | 50 | 88 |
| CC(C)=CCC/C(C)=C/CC[C@@](C)(O)[C@@H]1CC[C@H]2[C@@]1(C)CC[C@H]1C(C)(C)[C@@H](O)CC[C@]21C | 29 | 31 | 44 | 42 | 41 | – | 42 | 76 |
| C=C(CC/C=C(\C)CCC=C(C)C)[C@@H]1CC[C@H]2[C@@]1(C)CC[C@H]1C(C)(C)[C@@H](O)CC[C@]21C | > 50 | > 50 | > 50 | > 50 | > 50 | 58 | 53 | 62 |
| NC(=O)c1ncn([C@@H]2O[C@H](CO)[C@@H](O)[C@H]2O)n1 [RIBAVIRIN] | – | – | – | – | – | – | – | 97 |
| CC(C)=CCC/C(C)=C/CCC(C)(O)[C@H]1CC[C@H]2[C@@]1(C)CC[C@H]1C(C)(C)[C@@H](O)CC[C@]21C (some centres undefined) | 15 | 22 | 14 | 40 | 17 | 47 | 34 | 71 |
| CC(C)=CCC[C@@](C)(O)[C@H]1CC[C@]2(C)[C@@H]1CC[C@@H]1[C@@]3(C)CC[C@H](O)C(C)(C)[C@@H]3CC[C@]12C | 33 | 37 | 49 | 40 | 40 | 51 | 43 | 57 |
| C[C@@H]1C[C@H]2[C@@H]3CCC4=CC(=O)C=C[C@]4(C)[C@@]3(F)[C@@H](O)C[C@]2(C)[C@@]1(O)C(=O)CO [DEXAMETHASONE] | – | – | – | – | – | – | 55 | – |
| C=C(CC/C=C(\C)CCC=C(C)C)[C@H]1CC[C@H]2[C@@]1(C)CC[C@H]1C(C)(C)[C@@H](O)CC[C@]21C | > 50 | > 50 | > 50 | > 50 | > 50 | – | 40 | 45 |
| CC(C)=CCC/C(C)=C/CC[C@@](C)(O)[C@@H]1CC[C@H]2[C@@]1(C)CC[C@H]1C(C)(C)[C@@H](O[C@@H]3O[C@H](CO)[C@@H](O)[C@H](O)[C@H]3O[C@@H]3O[C@H](CO)[C@@H](O)[C@H](O)[C@H]3O)CC[C@]21C | 45 | > 50 | 36 | 26 | 39 | 48 | 30 | 65 |
